Patent US20220281930A1, “COMPOSITIONS AND METHODS FOR THE TREATMENT OF PATHOLOGICAL PAIN AND ITCH” (DUKE UNIVERSITY, priority 2019, published 2022)

Columns and labels:
KCC2 mRNA = KCC2 mRNA RT-qPCR in rat primary cortical neurons; assay type: cell-based; conditions: primary rat cortical neurons; 0.1, 0.2, 0.5 μM KP
Method: Total RNA was isolated from cultured cell samples using Directzol RNA miniprep kit (ZymoResearch). The protocol includes DNAse digestion to exclude genomic DNA from preparations. Total RNA (1 μg) was reverse transcribed using oligo primers (dT) and SuperScriptIII first-strand synthesis kit (Invitrogen). Gene expression was assessed by quantitative real-time PCR using 2×SYBR Green Master Mix (Qiagen) and a three-step cycling protocol (anneal at 60° C./elongate at 72° C., denature at 95° C.). Specificity of primers was verified by dissociation/melting curve for the amplicons when using SYBR Green as a detector. All reactions were performed in triplicates. The amount of target messenger RNA (mRNA) in the experimental group relative to that in the control was determined from the resulting fluorescence and threshold values (Ct) using the ΔΔCt method. βIII-tubulin was used as housekeeping gene. oligodT-initiated reverse transcription of 1 μg total RNA, DNA-se treated, was subjected to RT-qPCR using primers specific for KCC2 for rat and KCC2 for human sequences, normalized for neuronal βIII-tubulin, as previously described (Yeo et al., 2009, J Neurosci 29:14652-14662). For cultured neurons, total RNA was extracted from pelleted cells, and for spinal cord tissue it was extracted from microdissected lumbar spinal cord dorsal horn.

synaptophysin = assay: Immuno-cytochemistry morphometry of primary human cortical neurons, synaptophysin; assay type: cell-based; conditions: 400 nM KP
Method: The neuron-enriched cultures were established from fetal cortical specimens at 15-20 weeks of gestation. The protocols for tissue processing complied with all federal and institutional guidelines. The cultures were plated on PEI (polyethyleneimine solution) substrate and maintained in Neurobasal media supplemented with B27 as previously described (Pelsman et al., 2003, International journal of developmental neuroscience 21:117-124; Yeo et al., 2013, Proc Natl Acad Sci USA 110:4315-4320).
For immunostaining, the cultures were treated for 2-4 days with vehicle or 400 nM KP, fixed with 4% PFA at day 10, and processed for double-staining with anti-KCC2 and anti-synaptophysin or anti-NeuN (see Table 1).
The 0.34 micrometer confocal slices through entire cell layers at different optical fields (n=17-28 for each group) of the fixated cultures were acquired using a Zeiss LSM700 confocal microscope.
Image Z-stacks were analyzed using Imaris 9.2.1 software. Optical density intensity sum values for each stack/channel were divided by corresponding data volumes and the resulting values were normalized to the number of specifically labeled cells within each stack. There were no significant differences in the number of cells between vehicle and KP-treated groups.

N2a cultured cells = assay: Neuronalization of N2a cultured cells; assay type: cell-based, mouse; conditions: KP 0.2 μM for 3 days
[1] = system: mouse KCC2 promoter constructs; assay: KCC2 promoter luciferase reporter assay in N2a cells; assay type: cell-based; conditions: KP 400 nM
Text: A fragment of the mouse KCC2 gene promoter (position −2052 […]) was amplified from genomic DNA prepared from cultured mouse primary glial cells. A 2.5 kb PCR fragment was cloned into the pGL4.17-Basic Vector (Promega) to generate the KCC2 promoter reporter construct. TCF and Kaiso binding sites were identified in this fragment. Using wild-type construct pGL4.17-KCC2 as a template, site-directed mutagenesis using Phusion DNA Polymerase enzyme (Thermo Fisher F549L) in conjunction with complementary primers bearing the specific mutation were used to mutate the Kaiso and TCF DNA-binding sites. PCR was followed by Dpn1 enzyme digestion to remove parental plasmid DNA. All constructs were verified by sequencing.
N2a cells were grown to 90% confluency in 24-well dishes in 0.4 mL of medium (DMEM, 2% Fetal Bovine Serum, 2 mM glutamine, 1% Non-essential amino acids, and 1% Penicillin/Streptomycin). Cells were transiently transfected using TurboFect reagent (Thermo Fisher R0531), with 500 ng of the pGL4.17-constructs plus 20 ng of the control Renilla plasmid (Promega, E2231) to normalize for transfection efficiency. Twenty-four hours after transfection, luminescence was measured using the Dual-Luciferase® Reporter Assay System (Promega) in a microplate luminometer (Veritas, Turner Biosystems). Mutant promoters were compared to WT, and the response of the respective promoter to KP (400 nM) was measured. Three independent transfection experiments were carried out and LUC assays were done in triplicates for each transfection. RLU is expressed as firefly luciferase activity relative to Renilla LUC activity.
Promoter expression constructs were built with rationally-targeted deletions to interrogate the effects of the Kaiso- and TCF-binding sites on activity of the KCC2 promoter and to determine if this activity was regulated by KP. For ease of transfection, key to this method, N2a neural cells were again used. The 5′ and 3′ delta-cat Kaiso binding sites functioned in repressive and enhancing manners, respectively (FIG. 11D).

[2] = system: inflammatory pain, evoked by peripheral tissue injection of CFA; assay: CFA inflammatory pain model; assay type: in vivo, mouse
Method: For pain-related behavior, mechanical allodynia was assessed with von Frey filaments (Ugo Basile, Italy). The mice were placed on a 5×5-mm wire-mesh grid floor in individual compartments to avoid visual stimulation and allowed to adapt for 0.5 h prior to the von Frey test. The von Frey filament was then applied to the middle of the plantar surface of the hind paw with 5 g force. The withdrawal responses following the hind paw stimulation were measured at least three times, and the mechanical allodynia, which was defined as an increase in the number of withdrawal responses to the stimulation, was compared. In addition, paws were stimulated with heat from underneath applied by an infrared beam (Hargreaves' test apparatus, IR level 40; Ugo Basile), and withdrawal latencies were recorded. […] Thus, in vivo, KP functions as an analgesic when administered systemically in injury-related pain models.

For `O=C1Cc2c([nH]c3ccc(Br)cc23)-c2ccccc2N1` [kenpaullone, 9-bromo-7,12-dihydro-indolo [3,2-d] [1]benzazepin-6(5H)-one], the “KCC2 mRNA expression” value (KCC2 mRNA) was “dose-dependent increase”, the “increased synaptophysin expression relative to vehicle” value (synaptophysin) was 54% and the neuronal differentiation (N2a cultured cells) was “increased process formation”. For the same molecule, the “KCC2 promoter LUC activity” value ([1]; Kaiso1 deletion (ΔK1) construct) was “significantly enhanced further”, the “KCC2 promoter LUC activity” value ([1]; TCF deletion constructs of FIG. 11C) was “did not increase” and the “KCC2 promoter LUC activity” value ([1]; deletion of both Kaiso sites) was “non-responsiveness”. For the same molecule, the “KCC2 promoter LUC activity” value ([1]; triple-deletion of both Kaiso sites and TCF site) was “completely non-responsive”, the “sensitized withdrawal thresholds to mechanical cues” value ([2]; KP 10 and 30 mg/kg, no significant difference between doses) was “significantly less sensitive” and the thermal pain threshold ([2]; both low and high dose KP) was “significantly less sensitive only at day 7”.
